The values below come from paper PMC7579906, “Discovery of a dual inhibitor of NQO1 and GSTP1 for treating glioblastoma” (Journal of Hematology & Oncology, 2020).

One assay concerns U87MG cells. The assay can be described thus: Cell proliferation (MTT) assay, parental U87MG. Type of assay: cell-based. Conditions: Homo sapiens, U-87 MG, inhibition of cell proliferation/viability. Here is the method: (§1) The human glioblastoma cell line U87MG was stably transfected with vector control, pLHCX-EGFRvIII, pGFP-NQO1 and pRS-GSTP1, which were supplemented with various antibiotics. For EGFRvIII, 150 μg/mL of hygromycin was used; for pGFP-NQO1 and pRS-GSTP1, 0.7 μg/mL of puromycin was employed. The cells were supplemented with 10% fetal bovine serum (Hyclone, USA), penicillin (100 U/ml) and streptomycin (100 U/ml) (ABAM Life Technologies, USA) in a humidified incubator with 5% CO2 at 37 °C.
(§2) In vitro assessment was implemented for cell proliferation using the 3-(4, 5- dimethylthiazol- 2-yl)-2,5-diphenyltetrazolium bromide (MTT) assay. After different treatments with specific time periods, 10 μL of MTT (5 mg/mL in PBS, Sigma, USA) was added to each well and the plates were incubated for 3 h at 37 °C. The resulting formazan product was dissolved with DMSO. The absorbance at a wavelength of 490 nm was recorded using a microplate reader (BioTek Instruments Inc., USA).

The next assay relates to U87MG/EGFRvIII cells. The experiment in a line: Cell proliferation (MTT) assay, U87MG/EGFRvIII. Type of assay: cell-based, human. Conditions: Homo sapiens, U-87 MG; inhibition of cell proliferation/viability; MNPC treated 72 h. Here is the method:
as §1, §2

For orientation: IC50 means the concentration needed to halve the response being measured. As for `Cc1ccc(-c2csc(NC(=O)c3cccc4ccccc34)n2)c(C)c1` [Compound 24], the IC50 in the assay on U87MG cells was 24.5 µM; with U87MG/EGFRvIII cells it was 1.34 µM.

With `O=C(Nc1ncc([N+](=O)[O-])s1)c1ccccc1O` [TIZ, tizoxanide, reference compound], the values for the IC50 in the assay with U87MG cells and in the assay on U87MG/EGFRvIII cells were 82.9 µM and 22.4 µM, respectively.

With `Cc1ccc(C)c(-c2csc(NC(=O)c3ccc(-c4ccccc4)cc3)n2)c1` [Compound 21], the figures for the IC50 in the assay with U87MG cells and with U87MG/EGFRvIII cells were 16.6 µM and 1.67 µM, respectively.

In the case of `CCc1cc(C(=O)Nc2nc(-c3ccc(C)c(C)c3)c(C)s2)cs1` [Compound 23], the IC50 was determined as 29.1 µM with U87MG cells and 2.22 µM in the assay with U87MG/EGFRvIII cells.

With `Cc1ccc(C(=O)Nc2nc(-c3ccccc3)c(C)s2)cc1` [Compound 22], the concentration for half-maximal inhibition (IC50) was determined as 11.2 µM in the assay with U87MG cells and 2.42 µM with U87MG/EGFRvIII cells.

`CC(=O)Oc1ccccc1C(=O)Nc1ncc([N+](=O)[O-])s1` [NTZ, nitazoxanide, reference compound]: the IC50 with U87MG cells turned out to be 66.7 µM; in the assay on U87MG/EGFRvIII cells it was 19.4 µM.
